From US6479657B1, “Crystalline 1-kestose and process for preparing the same” (Meiji Seika Kaisha, Ltd., priority 1995, dated 2002)
Values belong to the compound of their own block, whether it stands above or below them.

Key:
[1] = tested on: enzyme having fructose transferase activity derived from a Scopulariopsis microorganism; experiment: Properties of the novel Scopulariopsis enzyme: substrate specificity, inhibition, kinetics; type: biochemical, Scopulariopsis brevicaulis
Description: In the case of an enzyme derived from a Scopulariopsis microorganism, the quantity of enzyme which can produce 1 μmol of 1-kestose in 1 minute at 40° C., pH 7.0, and a substrate (sucrose) concentration of 10 wt %.
The enzyme is prepared from a Scopulariopsis microorganism, preferably from Scopulariopsis brevicaulis, specifically Scopulariopsis brevicaulis IF04843 strain.
The enzyme can be recovered from a culture by incubating the microorganism in a suitable medium (e.g., a medium containing 3.0 to 10.0% of sucrose, 5 to 15% of corn steep liquor, 0.05 to 0.3% of urea, 0.2 to 3.0 of potassium dihydrogenphosphate, and 0.01 to 0.1% of magnesium sulfate heptahydrate), at initial pH of 6.5 to 7.5 and a temperature of 20 to 30° C. for 3 to 8 days. The enzyme is prepared preferably by recovering the fungus body from the culture using a centrifuge such as a basket type; suspending the recovered fungus body in a buffer at pH 7.0; obtaining a crude enzyme suspension by an ultrasonic treatment and a membrane treatment; then treating with anion exchange, gel filtration, chromatographic focusing, or other procedure on the crude enzyme suspension.
The freeze-dried fungus body powder prepared above was suspended in a McIlvaine buffer (pH 7.0), and ultrasonically crushed. The crushed cells were ultrafiltrated through a membrane filter (cutoff molecular weight: 100,000).

[2] = tested on: enzyme having fructose transferase activity derived from a Penicillium microorganism; experiment: Properties of the novel Penicillium enzyme: substrate specificity, inhibition, kinetics; type: biochemical, Penicillium roqueforti
Description: In the case of an enzyme derived from a Penicillium microorganism, the quantity of enzyme which can produce 1 μmol of 1-kestose in 1 minute at 50° C., pH 7.0, and a substrate (sucrose) concentration of 10 wt %; and The enzyme is prepared from a Penicillium microorganism, preferably from Penicillium roqueforti, specifically Penicillium roqueforti IAM7254 strain. The enzyme can be recovered from a culture by incubating the microorganism in a suitable medium (e.g., a medium containing 5 to 30% of sucrose, 1 to 10% of corn steep liquor, 0.05 to 0.3% of urea, 0.2 to 3.0 of potassium dihydrogenphosphate, and 0.01 to 0.1% of magnesium sulfate heptahydrate), at initial pH of 6.5 to 7.5 and a temperature of 25 to 30° C. for 2 to 5 days.

[3] = Decomposition of 1-kestose in the decolorizing and desalting procedure; type: physicochemical; details: activated carbon at 60° C. for 20 minutes, cation and anion exchange resin
Description: The deactivated solution was filtered to remove any impurities such as the fungus body and the activated carbon. Then, activated carbon (Taiko activated carbon S-W50) was added to the filtrate at a rate of 0.5% of the solids content, and stirred at a temperature of 60° C. for 20 minutes to decolorize again. After filtrating to remove the activated carbon in the same manner as above, the solution was desalted through cation and anion exchange resin, then filtrated again to make a colorless and transparent 1-kestose solution (chromatographic sample).
The deactivated solution was filtered to remove any impurities such as the fungus body and the activated carbon. Then, activated carbon (Taiko activated carbon S-W50) was added to the filtrate at a rate of 0.5% per solids content, and stirred at a temperature of 60° C. for 20 minutes to decolorize again. After filtrating to remove the activated carbon in the same manner as above, the solution was desalted through cation and anion exchange resin, then filtrated again to make a colorless and transparent 1-kestose solution (chromatographic sample).
The deactivated solution was filtered to remove any impurities such as the fungus body and the activated carbon. […]

SMILES: OC[C@H]1O[C@H](O[C@H]2[C@H](O)[C@@H](O)C(O)O[C@@H]2CO)[C@H](O)[C@@H](O)[C@@H]1O (mixture of isomers) [maltose]
- Substrate specificity (enzyme acts on sugar) [1]: not on
- Substrate specificity (enzyme acts on sugar) [2]: not on

SMILES: OC[C@H]1O[C@@](CO)(OC[C@@]2(O[C@H]3O[C@H](CO)[C@@H](O)[C@H](O)[C@H]3O)O[C@H](CO)[C@@H](O)[C@@H]2O)[C@@H](O)[C@@H]1O [Example 1-kestose, 1-kestose]
- Substrate specificity (enzyme acts on sugar) [1]: effectively acts on
- Substrate specificity (enzyme acts on sugar) [2]: effectively acts on
- decomposition of 1-kestose [3]: hardly observed

SMILES: OC[C@H]1O[C@H](OC[C@H]2O[C@H](O[C@]3(CO)O[C@H](CO)[C@@H](O)[C@@H]3O)[C@H](O)[C@@H](O)[C@@H]2O)[C@H](O)[C@@H](O)[C@H]1O [raffinose]
- Substrate specificity (enzyme acts on sugar) [1]: effectively acts on
- Substrate specificity (enzyme acts on sugar) [2]: effectively acts on

The remaining lines, values ahead:

- Substrate specificity (enzyme acts on sugar) [1]: effectively acts on
- Substrate specificity (enzyme acts on sugar) [2]: effectively acts on
SMILES: OC[C@H]1O[C@@](CO)(O[C@H]2O[C@H](CO)[C@@H](O)[C@H](O)[C@H]2O)[C@@H](O)[C@@H]1O [sucrose]

- Substrate specificity (enzyme acts on sugar) [1]: not on
- Substrate specificity (enzyme acts on sugar) [2]: not on
SMILES: O=C(CO)[C@@H](O[C@H]1O[C@H](CO)[C@@H](O)[C@H](O)[C@H]1O)[C@H](O)[C@H](O)CO [turanose]
